These results are taken from paper PMC9440028, “Neurotensin analogs by fluoroglycosylation at N^ω-carbamoylated arginines for PET imaging of NTS1-positive tumors” (Scientific Reports, 2022).

Series [1] can be described thus: In vitro stability in human plasma/PBS (1:2 v/v) at 37 °C. It counts as in vitro ADME. Particulars: human blood plasma/PBS (1:2 v/v), read-out: % intact peptide in human plasma after the given incubation time; for remaining at 10 min, 100 µM: pH 7.4, 10 min; for remaining at 1 h, 100 µM: pH 7.4, 1 h; for remaining at 6 h, 100 µM: pH 7.4, 6 h; for remaining at 24 h, 100 µM: pH 7.4, 24 h. On the procedure: The metabolic stabilities of 11–14, 16 and 18–21 (cf. Table 2) were investigated in human blood plasma/PBS (136.9 mM NaCl, 2.68 mM KCl, 5.62 mM Na2HPO4, 1.09 mM NaH2PO4 and 1.47 mM KH2PO4) pH 7.4 (1:2, v/v) according to a described procedure[13] with the following modifications: 5 mM stock solutions in EtOH/0.04% aq TFA (30:70 v/v) (11–13), MeCN/0.025% aq TFA (30:70 v/v) (14), MeCN/0.04% aq TFA (30:70 v/v) (16, 19 and 21) or EtOH/H2O (40:60 v/v) (18, 20) were used for the addition of the peptides to plasma/PBS (1:2 v/v). As the RP-HPLC purity of 1-Methyl-D-Trp (internal standard, IS) was < 95% (data not shown), the compound was purified by preparative HPLC to give a purity of > 99%. The concentration of the peptides in plasma/PBS (1:2 v/v) was 80 and 4 µM (recovery determination) or 100 µM (stability tests). The obtained recoveries and the recovery ratios (peptide/internal standard) are summarized in Supplementary Table S1. Data analysis was based on UV detection at 220 nm. Additionally, the stability of compound 21 was investigated in mouse plasma/PBS (1:2 v/v) using the same procedure as described above for human plasma. Mouse plasma was obtained by the collection of blood from anaesthetized mice via cardiac puncture using a syringe that was rinsed with sodium heparin (25,000 I.E., Ratiopharm, Ulm, Germany). The heparinized blood was transferred into a 2-mL reaction vessel, followed by centrifugation (1200 g, 4 °C, 10 min). The supernatants were pooled, centrifuged again (1200 g, 4 °C, 10 min), the plasma was aliquoted and stored at − 80 °C. The concentration of 21 in plasma/PBS (1:2 v/v) was 80 and 4 μM (recovery determination) or 100 μM (stability tests). The obtained recoveries and the recovery ratios (21/IS) are summarized in Supplementary Table S2. Data analysis was based on UV detection at 220 nm.

Another series concerns the target T1, hNTS1R (Homo sapiens, UniProt P30989).
T1 construct: at hNTS1R expressing intact human HT-29 colon carcinoma cells; endogenous in cells; host or cells: HT-29 human colon carcinoma cells (intact)
As to the kind of experiment: Radioligand competition binding with [^3H]UR-MK300 at intact HT-29 cells. Conditions: [^3H]UR-MK300 (Kd = […], c = 1 nM), 23 °C. The method, then:
Unspecific binding was subtracted from total binding to obtain specific binding. Data analysis was performed by plotting % specifically bound radioligand (100% = specifically bound radioligand in the absence of competitor) over log(concentration of competitor) followed by a four-parameter logistic fit (SigmaPlot 12.5, Systat Software). […] The Ki values from individual experiments were transformed to pKi values, followed by the calculation of mean pKi values ± SEM.
On the technique in general: In a radioligand displacement assay an active substance lowers the binding of a labelled ligand.

Where [2] appears, read: read-out: pKi ± SEM (converted).

Read-outs that look alike come from different tables or passages of the source.

T1 sequence (P30989 whole entry): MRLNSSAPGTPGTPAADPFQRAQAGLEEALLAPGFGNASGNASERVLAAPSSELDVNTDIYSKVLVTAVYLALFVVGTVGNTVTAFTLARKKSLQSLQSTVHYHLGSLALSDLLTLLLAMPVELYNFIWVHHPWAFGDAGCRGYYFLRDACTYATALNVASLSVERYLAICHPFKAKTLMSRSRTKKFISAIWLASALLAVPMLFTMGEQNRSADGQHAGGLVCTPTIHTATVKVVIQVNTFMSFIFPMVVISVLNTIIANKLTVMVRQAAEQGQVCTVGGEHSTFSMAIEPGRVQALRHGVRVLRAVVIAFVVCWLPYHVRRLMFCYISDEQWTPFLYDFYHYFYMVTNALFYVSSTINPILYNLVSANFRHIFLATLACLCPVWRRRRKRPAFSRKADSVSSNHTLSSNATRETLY

With `C#CCCC(=O)NCCCCNC(=O)NC(=N)NCCC[C@H](N)C(=O)N[C@@H](CCCNC(=N)N)C(=O)N1CCC[C@H]1C(=O)N[C@@H](Cc1ccc(O)cc1)C(=O)N[C@H](C(=O)N[C@@H](CC(C)C)C(=O)O)C(C)(C)C` [Compound 18, H-{N^ω-[N-(4-pent-4-ynoylaminobutyl)aminocarbonyl]}Arg-Arg-Pro-Tyr-2-tert-butyl-Gly-Leu-OH tris(hydrotrifluoroacetate)], in series [1], the remaining at 10 min, 100 µM came to 59 ± 1%; the remaining at 1 h, 100 µM was less than 1%; the remaining at 6 h, 100 µM was less than 1%; the remaining at 24 h, 100 µM was less than 1%. In addition, on hNTS1R (mean, read-out: Ki (converted)), the Ki was 4.4 nM. On hNTS1R (setting [2]), the Ki is 4.27 nM.
Take `CC(C)C[C@H](NC(=O)[C@@H](NC(=O)[C@H](Cc1ccc(O)cc1)NC(=O)[C@@H]1CCCN1C(=O)[C@H](CCCNC(=N)N)NC(=O)[C@@H](N)CCCNC(=N)NC(=O)NCCCCN)C(C)(C)C)C(=O)O` [Compound 14, N^ω-[(4-aminobutyl)aminocarbonyl]Arg-Arg-Pro-Tyr-2-tert-butyl-Gly-Leu-OH tetrakis(hydrotrifluoroacetate)]: in series [1], the remaining at 10 min, 100 µM amounted to 50 ± 2%; the remaining at 1 h, 100 µM was less than 1%; the remaining at 6 h, 100 µM is less than 1%; the remaining at 24 h, 100 µM was less than 1%. The Ki on hNTS1R (mean, read-out: Ki (converted)) was 2.2 nM. At hNTS1R (setting [2]), the Ki was 2.04 nM.
For the compound `CC(C)C[C@H](NC(=O)[C@@H](NC(=O)[C@H](Cc1ccc(O)cc1)NC(=O)[C@@H]1CCCN1C(=O)[C@H](CCCNC(=N)N)NC(=O)[C@@H](N)CCCNC(=N)NC(=O)NCCCCc1cn([C@@H]2O[C@H](CF)[C@@H](O)[C@H](O)[C@H]2O)nn1)C(C)(C)C)C(=O)O` [Compound 11, H-{N^ω-[N-(4-{1-[6-deoxy-6-fluoro-β-D-glucopyranosyl]-1H-1,2,3-triazol-4-yl}butyl)aminocarbonyl]}Arg-Arg-Pro-Tyr-2-tert-butyl-Gly-Leu-OH tris(hydrotrifluoroacetate)], in series [1], the remaining at 10 min, 100 µM is 72 ± 1% and the remaining at 1 h, 100 µM turned out to be 1.1 ± 0.1%. The remaining at 25 min, 100 µM in series [1] (pH 7.4, 25 min) is 24 ± 1%. Also, the remaining at 2 h, 100 µM in series [1] (pH 7.4, 2 h) was less than 1%. Moreover, at hNTS1R (mean, read-out: Ki (converted)), the Ki is 4.6 nM.
For the compound `C#CCCCCNC(=O)NC(=N)NCCC[C@H](N)C(=O)N[C@@H](CCCNC(=N)N)C(=O)N1CCC[C@H]1C(=O)N[C@@H](Cc1ccc(O)cc1)C(=O)N[C@H](C(=O)N[C@@H](CC(C)C)C(=O)O)C(C)(C)C` [Compound 7, H-(N^ω-5-hexynylaminocarbonyl)Arg-Arg-Pro-Tyr-2-tert-butyl-Gly-Leu-OH tris(hydrotrifluoroacetate)], the Ki on hNTS1R (mean, read-out: Ki (converted)) was 4.6 nM; at hNTS1R (setting [2]), 4.37 nM.
As for `C#CCCCCNC(=O)NC(=N)NCCC[C@H](NC(=O)[C@H](CCCNC(=N)N)NC)C(=O)N1CCC[C@H]1C(=O)N[C@@H](Cc1ccc(O)cc1)C(=O)N[C@H](C(=O)N[C@@H](CC(C)C)C(=O)O)C(C)(C)C` [Compound 9, N^α-(N^α-methylarginyl)-N^ω-(5-hexynylaminocarbonyl)Arg-Pro-Tyr-2-tert-butyl-Gly-Leu-OH tris(hydrotrifluoroacetate)], the Ki at hNTS1R (mean, read-out: Ki (converted)) is 7.7 nM; on hNTS1R (setting [2]) it was 7.41 nM.
Take `C#CCCCCNC(=O)NC(=N)NCCC[C@H](NC(=O)[C@@H](N)CCCNC(=N)N)C(=O)N1CCC[C@H]1C(=O)N[C@@H](Cc1ccc(O)cc1)C(=O)N[C@H](C(=O)N[C@@H](CC(C)C)C(=O)O)C(C)(C)C` [Compound 8, H-Arg-(N^ω-5-hexynylaminocarbonyl)Arg-Pro-Tyr-2-tert-butyl-Gly-Leu-OH tris(hydrotrifluoroacetate)]: on hNTS1R, the “pKi ± SEM” value was determined as 8.03 ± 0.03. For the same compound, the Ki on hNTS1R (mean, read-out: Ki (converted)) was 9.4 nM.
